Test results taken from patent US10206862B2, “Supplement to support healthy hair, skin, and nails” (priority 2016, dated 2019).

Legend:
[1] = tested on: Antioxidant Response Element (ARE); experiment: ARE reporter assay (ARE-32 luciferase reporter cell line); type: cell-based, rat; settings: ARE32 (MCF7) luciferase reporter cells, 24 hours treatment; Nrf2 antioxidant response activation
Protocol: ARE activation was quantitated using the ARE-32 reporter cell line available from CXR-Biosciences as described in the ARE Assay below. ARE32 is a stable MCF7 cell line containing pGL8x-ARE (8 copies of the rat GST ARE linked to the luciferase gene) and pCDNA3.1, which contains the neomycin selectable marker. Selection was performed in the presence of G418 and resistant clones were isolated. Clones were screened for induction of luciferase in response to tBHQ (tert-Butylhydroquinone). The ARE32 cells are maintained routinely in the DMEM (phenol red free) containing: 10% FBS, 50 units/ml penicillin & 50 μg/ml streptomycin, 0.8 mg/ml G418. […] Cells were frozen in medium that contains 90% FBS and 10% dimethyl sulfoxide (DMSO). In a 96 well-plate, seed 1×10^4 cells/well in 100 μl DMEM containing 50 units/ml penicillin, 50 μg/ml streptomycin, 0.8 mg/ml G418 and 10% FBS. Next, incubate the cells at 37° C. in a 5% CO2 incubator for 24 hrs, and then replace the medium with 100 μl fresh media. Treat with test compounds at 2 μl per well, positive control was 25 μM TBHQ. (10 mM tBHQ of stock solution freshly prepared in DMSO). Add 100 μl of media after treatment for a final assay volume of 200 μL. Incubate the cells at 37° C. in CO2 incubator for another 24 hours. […]

[2] = tested on: keratinocytes; experiment: Reduction in ATP depletion after peroxide stress (CellTiter-Glo); type: cell-based; settings: 1 hour treatment, net luminescence = treatment counts minus vehicle control counts
Protocol: Hydrogen peroxide is a well-known ROS and is commonly used as a model to analyze the effects of various ROS. In this test, keratinocytes were cultured (passage <8) in T150 flasks using EpiLife® medium (Calcium Free and Phenol Red Free, supplemented with penicillin/streptomycin and keratinocytes growth supplement, Invitrogen™ cat# MEPICFPRF500). The keratinocytes were then plated in 24 well plates, 40,000 cells/well, 1 ml media. After 24 hours, the keratinocytes were treated with organic astaxanthin and astaxanthin in combination with Digestive Support Blend (see Example 1 above), Stress and Energy Support Blend (see Example 1 above), Reishi, or biotin for 1 hour. The keratinocytes were washed in PBS and ATP levels were measured using the CellTiter-Glo® Luminescent Cell Viability Assay (available from Promega, cat# G7571/2/3) per manufacturer's directions. Luminescence was measured on a SpectraMax® M3 (available from Molecular Devices, Sunnyvale, Calif., USA). Net luminescence (or net ATP) is calculated by subtracting the luminescence counts from the vehicle control from the luminescence counts from the treatment groups.

[3] = tested on: PGE2 release from UVB stressed keratinocytes; experiment: PGE2 assay in UVB stressed keratinocytes; type: cell-based; settings: telomerized human keratinocytes, UVB 15 mJ/cm^2, 24 hours treatment; PGE2 (pg/mL) normalized to ATP; FIG. 3
Protocol: Telomerized human keratinocytes are propgated in EpiLife® Media in CO2-incubator at 37° C. in T150 flasks (available from Corning®, Corning, N.Y., USA). […] The plates were incubated another 2 days until cell confluency reaches >80%. At this point, the cells were irradiated with a Bio-Sun™ UV with UVB light for a dose of 15 mJ/cm^2. The media was then switched with fresh medium prepared with the treatments. The cells were then incubated for 24 hours before harvest. At harvest, the media supernatant was collected and transferred to a deep well plate and frozen in −80° C. for later determination of PGE2 levels. PGE2 levels were measured from the media supernatants using the PGE2 Assay kit (available from Cisbio™, Bedford, Mass.) per manufacturer's directions. PGE2 levels here were normalized to the ATP measurements such that the final PGE2 values were recorded as PGE2 (pg/mL)/ATP level treatment compared to control. Typically, each data point is the average of 4 replicates.

SMILES: O=C(O)CCCC[C@@H]1SC[C@@H]2NC(=O)N[C@@H]21 [Biotin]
- ARE - Fold Over Control [1]: 1.71 Fold Over Control
- Net ATP [2]: 947
- PGE2 release from keratinocytes [3]: reduce PGE2

SMILES: CC1=C(/C=C/C(C)=C/C=C/C(C)=C/C=C/C=C(C)/C=C/C=C(C)/C=C/C2=C(C)C(=O)[C@@H](O)CC2(C)C)C(C)(C)C[C@H](O)C1=O [Organic Astaxanthin, Astaxanthin]
- ARE - Fold Over Control [1]: 2.65 Fold Over Control
- Net ATP [2]: 1096
- PGE2 release from keratinocytes [3]: reduce PGE2
